Source: patent US7601687B2, “Mechanism for identifying drugs for the treatment of type II diabetes” (BioCrine AB, priority 2006, dated 2009)
“Also recorded” adds a separate entry of the source.

Test system: rat βGK promoter
Assay: On-line monitoring of βGK promoter-driven GFP expression (prβGK.GFP) in transfected HIT-T15 cells, islet cells and islets
Format: cell-based, hamster (HIT-T15), rat (islet cells)
Conditions: for effect of inhibitor on insulin-stimulated βGK transcription / promoter activity: 5 mU/ml insulin 5 min, 150 nM BIM, 20 μM PD98059, 10 μM PD169316, 100 μM HNMPA-(AM)3, 400 nM AC, FIG. 5; for effect of inhibitor on insulin-stimulated βGK transcription / promoter activity / effect of inhibitor on insulin-stimulated βGK promoter activity (GFP) in the same co-transfected cell: 25 μM LY294002, 10 nM rapamycin; for effect of inhibitor on insulin-stimulated βGK promoter activity (GFP) in the same co-transfected cell: 5 mU/ml insulin, 400 nM AC, 100 μM HNMPA-(AM)3
Source text: Construction of prIns1.GFP has been described earlier (Leibiger et al., 1998a). Vector prIns1.DsRed was generated by exchanging the EGFP-expression cassette versus the DsRed-expression cassette obtained from pDsRed1-1 (Clontech). Plasmid prβGK.GFP (i.e. prβGK-278.GFP) was generated by exchanging the CAT-SV40pA-expression cassette of prβGK-278.CAT (Leibiger et al., 1994a) versus the EGFP-bGHpA-expression cassette obtained from pRcCMVI.GFP (Moede et al., 1999). […] All vector constructions were verified by DNA sequence analysis. […] Expression constructs pCMV5.PKBα, pCMV5.PKBαΔ308/437, pCMV5.PDK1 and pCMV5.PDK1-antisense were kindly provided by Drs. P. Cohen and D. R. Alessi (MRC Phosphorylation Unit, University of Dundee, UK).
HIT cells were reported to show glucose responsiveness at subphysiological concentrations between 0.1 and 2 mM (Sharma et al., 1995). HIT cells were grown in RPMI 1640 medium supplemented with 100 units/ml penicillin, 100 μg/ml streptomycin, 2 mM glutamine and 10% fetal calf serum at 5% CO2 and 37° C. Pancreatic islets were isolated from normally fed male Wistar rats and from mice by collagenase digestion. Isolated islets were incubated overnight at 5% CO2 and 37° C. in RPMI 1640 medium, supplemented as described above. Transfection of HIT-T15 and islet cells was performed overnight by the lipofectamine technique in RPMI 1640 medium, without serum and antibiotics. For on-line monitoring, cells were grown and transfected on 24-mm glass coverslips. Following transfection, HIT cells were cultured for 12-18 h in RPMI 1640 medium containing 0.1 mM glucose, 10% fetal calf serum and supplemented as above. Before stimulation, islets and islet cells were incubated for 2 h in RPMI 1640 medium, supplemented as above but containing 3 mM glucose. All expression constructs were prepared using the Qiagen Plasmid Maxi Kit (Qiagen), except those used to produce the adenoviruses which where purified by ultracentrifugation via a CsCI-gradient (as described in Sambrook et al, 1989).
Islets were transduced with Ad.rβGK.GFP or Ad.CMV.GFP by incubating 50 islets with 1 ml virus-containing medium for 90 min at 37° C. and 5% CO2. Following transduction, islets were washed 3 times with PBS and cultured further in RPMI 1640 medium. Islets were stimulated 40-72 h after transduction, as described below and analyzed by laser-scanning confocal microscopy.
All experiments were performed in RPMI 1640 medium, supplemented as above. Protein kinase inhibitors, antibodies or nifedipine were added to the culture medium 30 min prior to stimulation and were kept in the medium throughout stimulation. After stimulation islets, islet cells and HIT cells were cultured further at substimulatory glucose concentrations (0.1 mM for HIT cells and 3 mM for islets and islet cells). For RNA-analysis, islets and cells were harvested 60 min after start of stimulation, if not indicated otherwise. For analysis of protein kinase activities or tyrosine phosphorylation, cells were harvested immediately following stimulation.
Detection of fluorescence by digital imaging fluorescence microscopy was performed as described previously (Leibiger et al., 1998a; Leibiger et al., 1998b). Briefly, transfected cells were grown on 24-mm glass coverslips. After stimulation the coverslips were placed into a perifusion chamber which was mounted on an inverted microscope (Zeiss Axiovert 135TV). Temperature was kept at 37° C. and the cells were perfused with RPMI 1640 medium. The objective lens used was a Zeiss-Fluar ×40/1.30 oil Imm Korr. Fluorescence imaging was performed with a cooled charged-coupled device camera (CH250 with KAF 1400, Photometrics, Tucson, Ariz.) connected to an imaging system (Inovision) with fluorescence excitation from a SPEX fluorolog-2 CM1T11I spectrofluorometer (Spex Industries).

Molecule	effect of inhibitor on insulin-stimulated βGK transcription / promoter activity	effect of inhibitor on insulin-stimulated βGK promoter activity (GFP) in the same co-transfected cell	βGK promoter-driven GFP fluorescence upon insulin stimulation (5 mU insulin per ml for 5 min, substimulatory glucose)	amount of exogenous insulin required to gain an effect on βGK promoter activation (transfected HIT-T15 cells, supplemented culture medium (FIG. 4B))
CC(=O)OCOC(c1ccc2ccccc2c1)P(=O)(OCOC(C)=O)OCOC(C)=O (stereo not drawn) [HNMPA-(AM)3]	sensitive	abolished	–	–
autocamtide-2 related inhibitory peptide	altered neither	no effect	–	–
insulin	–	–	increase; also recorded: elevation	20 μU per ml
